Assay in all cases: inhibition of tumour cell growth, NCI panel, 48 h
The subject of assay [1] is Hs-578T.
For assay [2], the system named is HT-29.
For assay [3], the system named is SR.
Assay [4] has as its system PC-3.
In assay [5] the test system is MOLT-4.
In assay [6] the test system is HOP-92.
The test system of assay [7] is OVCAR-8.
The test system of assay [8] is TK-10.
For assay [9], the system named is SW-620.
Assay [10] has as its system SK-MEL-2.
Assay [11] relates to UO-31.
The test system of assay [12] is ACHN.
In assay [13] the test system is 786-0.
Assay [14] concerns K562.
Assay [15] deals with LOX IMVI.
For assay [16], the system named is MDA-N.
The subject of assay [17] is A498.
Assay [18] has as its system RPMI-8226.
Assay [19] deals with NCI-H460.
Assay [20] has as its system SK-OV-3.

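Following 48 hours of exposure in 96-well plates, responses at five concentrations were used to interpolate endpoints linearly. GI50 = concentration required for 50% inhibition of growth.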 Activity calls are given as the source filed them. Rule as the data show it: active = GI50 up to about 1.1 µM and inactive = higher. Some results are limits rather than exact numbers.

As for `CC(C)OC(=O)C1=C2c3ncccc3C(=O)N2[C@@H](Cl)[C@H](Cl)[C@H]1Cl`, the GI50 was > 100 µM (inactive) in assay [1]; > 100 µM (inactive) in [2]; 26.5 µM (inactive) in assay [3]; 56.6 µM (inactive) in [4]; 22.5 µM (inactive) in [5]; 46.3 µM (inactive) in assay [6]. In addition, the GI50 was 31.7 µM (inactive) in [7]; > 100 µM (inactive) in [8]; 34.6 µM (inactive) in assay [9]; > 100 µM (inactive) in assay [10]; > 100 µM (inactive) in assay [11]; > 100 µM (inactive) in assay [12]. In addition, the GI50 in assay [13] is 55.2 µM (inactive); in assay [14], 30.5 µM (inactive); in assay [15], 68.9 µM (inactive); in [16] it was 50.9 µM (inactive); in assay [17], > 100 µM (inactive); in assay [18], 21.8 µM (inactive). In assay [19], the GI50 was > 100 µM (inactive).
`CCOc1cc(C(=O)O)c2c(ccc3ccc(OC)c(OC)c32)c1OC`: the GI50 in assay [1], in assay [2], in assay [3], in assay [4], in assay [5] and in assay [6] was > 100 µM (inactive) each time. Also, the GI50 in assay [7], in assay [8], in [20], in [9], in assay [10] and in [11] was > 100 µM (inactive) each time. The GI50 in [12], in assay [13], in assay [14], in assay [15], in [16] and in assay [18] was > 100 µM (inactive) each time. For the same compound, in [19], the GI50 was > 100 µM (inactive).
As to `CCOC(=O)c1c(SC(=O)c2ccc(Cl)cc2)n(-c2ccccc2)c(=S)n(-c2ccccc2)c1=O`, the GI50 in assay [1], in assay [2], in assay [3], in [4], in [5] and in [6] was > 100 µM (inactive) in each case. Also, the GI50 in assay [7], in assay [8], in assay [20], in assay [9], in assay [12] and in assay [13] was > 100 µM (inactive) in each case. Further, the GI50 in [14], in [15], in assay [16], in assay [17] and in assay [19] was > 100 µM (inactive) in each case.
On to `O=[N+]([O-])c1ccc2c(c1)Sc1ccccc1N2CCCCCl`, for which the GI50 in assay [1] was > 100 µM (inactive); in assay [2] it was > 100 µM (inactive); in [3], > 100 µM (inactive); in assay [4] it was > 100 µM (inactive); in assay [5], 87.9 µM (inactive); in [6], 24.9 µM (inactive). Besides, the GI50 in [7], in assay [8], in assay [9], in assay [11], in assay [12] and in assay [13] was > 100 µM (inactive) in each case. For the same compound, the GI50 was 70.6 µM (inactive) in assay [14]; > 100 µM (inactive) in assay [15]; > 100 µM (inactive) in [16]; > 100 µM (inactive) in [17]; > 100 µM (inactive) in [18]; > 100 µM (inactive) in assay [19].
As to `COc1cc(COC(=O)N2CCCCC2C(=O)O)c([N+](=O)[O-])cc1OC` (centres undefined), the GI50 in [1], in assay [2], in assay [3], in [4], in assay [5] and in assay [6] was > 100 µM (inactive) each time. Besides, the GI50 in assay [7], in [8], in assay [20], in [9], in [11] and in [12] was > 100 µM (inactive) each time. In addition, the GI50 in assay [13], in assay [14], in [16], in assay [17], in assay [18] and in assay [19] was > 100 µM (inactive) each time.
In the case of `COc1c2c(c3c(c1CCC(=O)O)OC(C)(C)C=C3)OC(C)(C)C=C2`, the GI50 was 83.8 µM (inactive) in assay [1]; > 100 µM (inactive) in assay [2]; > 100 µM (inactive) in assay [3]; > 100 µM (inactive) in assay [4]; 65.9 µM (inactive) in [5]; > 100 µM (inactive) in assay [7]. Further, the GI50 in assay [8], in assay [20], in assay [9], in assay [10], in assay [11] and in assay [12] was > 100 µM (inactive) throughout. The GI50 in [13] was > 100 µM (inactive); in assay [14], 55.8 µM (inactive); in assay [15], > 100 µM (inactive); in assay [16], 31.4 µM (inactive); in assay [17], > 100 µM (inactive); in [18], 48.4 µM (inactive).
As for `CCCC(=O)NC(Nc1cc(C)ccn1)(C(=O)OCC)C(F)(F)F` (centres undefined), the GI50 was > 100 µM (inactive) in assay [1]; > 100 µM (inactive) in [2]; > 100 µM (inactive) in assay [3]; > 100 µM (inactive) in assay [4]; > 100 µM (inactive) in [5]; 91 µM (inactive) in [6]. Besides, the GI50 in [7], in assay [8], in [20], in assay [9], in [10] and in assay [11] was > 100 µM (inactive) in each case. The GI50 in assay [12], in assay [13], in assay [14], in assay [15], in assay [16] and in assay [18] was > 100 µM (inactive) each time.
`CC1CN=C(Nc2cccc(F)c2)S1` (centres undefined): the GI50 in assay [1] is > 100 µM (inactive); in [2], > 100 µM (inactive); in assay [3] it was 7.87 µM (inactive); in [4], > 100 µM (inactive); in assay [6], > 100 µM (inactive); in assay [7] it was > 100 µM (inactive). Also, the GI50 in assay [8], in assay [20], in assay [9], in [10], in assay [11] and in assay [12] was > 100 µM (inactive) throughout. Further, the GI50 in assay [13], in assay [14], in [15], in [16] and in [18] was > 100 µM (inactive) in each case.
As to `COC(=O)CN1CCN(c2cccc3c2CCCC3)CC1`, the GI50 in [1] was > 100 µM (inactive); in [2] it was 18.2 µM (inactive); in [3] it was 35.5 µM (inactive); in [4], 64.6 µM (inactive); in assay [5], 44.5 µM (inactive); in assay [6], 0.0248 µM (active). Moreover, the GI50 in [7] is > 100 µM (inactive); in [8], 93.8 µM (inactive); in assay [9], > 100 µM (inactive); in assay [10] it was > 100 µM (inactive); in [11], 92.3 µM (inactive); in assay [12], 72.9 µM (inactive). In addition, the GI50 was 36.2 µM (inactive) in assay [13]; 90.2 µM (inactive) in assay [14]; 43.5 µM (inactive) in [15]; > 100 µM (inactive) in assay [16]; > 100 µM (inactive) in assay [17]; 25.1 µM (inactive) in assay [18]. Besides, the GI50 in assay [19] was 46.8 µM (inactive).
As to `CC(=O)Nc1ccc2nc(-c3ccccn3)c(-c3ccccn3)nc2c1`, the GI50 in [1], in [3], in assay [4], in assay [5], in [6] and in assay [7] was > 100 µM (inactive) in each case. For the same compound, the GI50 in [8], in [9], in assay [10], in assay [11], in [12] and in assay [13] was > 100 µM (inactive) throughout. The GI50 in assay [14], in assay [15], in [16], in assay [17], in assay [18] and in assay [19] was > 100 µM (inactive) in each case.
For the compound `CCN(CC)CCN1C(=O)C(=O)N(c2cccc3ccccc23)C1=O`, the GI50 was 8.65 µM (inactive) in assay [1]; > 10 µM (inactive) in [2]; > 10 µM (inactive) in assay [3]; > 10 µM (inactive) in assay [4]; > 10 µM (inactive) in assay [5]; > 10 µM (inactive) in assay [7]. In addition, the GI50 in assay [8], in [20], in assay [9], in assay [10], in [11] and in [12] was > 10 µM (inactive) throughout. Besides, the GI50 in [14], in assay [15], in assay [16], in [17], in assay [18] and in [19] was > 10 µM (inactive) in each case.
